In assay [1] the test system is Pyricularia oryzae. It counts as in vivo. Conditions: 200 ppm spray on rice (Koshihikari, 3 leaf stage), inoculated next day; lesion numbers on third leaves after 7 days in green house, graded by Table 5.
For assay [2], the system named is Colletotrichum lagenarium. Conditions: 200 ppm spray on cucumber (3 leaf stage), inoculated next day; lesion numbers on first and second leaves after 7 days in green house, graded by Table 5.

For `Cc1ccc(-c2cc(CNC(=O)C3CCC3)on2)cc1` [III-228, N-{[3-(4-tolyl)-5-isoxazolyl]methyl}cyclobutanecarboxamide], in assay [1], the “Evaluation (effect for rice blast)” value is given as 4 (1˜5). Further, the “Evaluation (effect for cucumber anthracnose)” value in assay [2] was 3 (6˜10). Turning to `Cc1ccc(Cc2cc(CNC(=O)c3ccc(C)cc3)on2)cc1` [IV-10, N-{[3-(4-methylbenzyl)-5-isoxazolyl]methyl}-4-methylbenzamide], the “Evaluation (effect for rice blast)” value in assay [1] is given as 5 (0). For the same molecule, the “Evaluation (effect for cucumber anthracnose)” value in assay [2] is reported as 5 (0). Turning to `COc1ccc(C(=O)NCc2cc(-c3nc(-c4ccccc4)no3)no2)cc1` [III-232, N-{[3-(3-phenyl-1,2,4-oxadiazol-5-yl)-5-isoxazolyl]methyl]-4-methoxybenzamide], the “Evaluation (effect for rice blast)” value in assay [1] is given as 3 (6˜10). Also, in assay [2], the “Evaluation (effect for cucumber anthracnose)” value is reported as 2 (11˜20). Regarding `O=C(NCc1cc(-c2ccco2)no1)Oc1ccccc1` [I-33, phenyl{[3-(2-furyl)-5-isoxazolyl)methyl]carbamate], in assay [1], the “Evaluation (effect for rice blast)” value is given as 5 (0). For the same molecule, in assay [2], the “Evaluation (effect for cucumber anthracnose)” value was 5 (0). Turning to `CC(C)c1cc(CNC(=O)C(C)c2ccccc2)on1` (stereo not shown) [I-47, N-[(3-isopropyl-5-isoxazolyl)methyl]-2-phenylpropanamide], the “Evaluation (effect for rice blast)” value in assay [1] is 4 (1˜5). Also, in assay [2], the “Evaluation (effect for cucumber anthracnose)” value was 4 (1˜5). Consider `CCC(C)c1cc(CNC(=O)c2ccc(OC)cc2)on1` (stereo not shown) [III-236, N-[(3-sec-butyl-5-isoxazolyl)methyl]-4-methoxybenzamide], for which, in assay [1], the “Evaluation (effect for rice blast)” value is 4 (1˜5). In addition, the “Evaluation (effect for cucumber anthracnose)” value in assay [2] is recorded as 4 (1˜5). For the molecule `CC(C)Cc1cc(CNC(=O)c2ccc(Cl)cc2)on1` [III-252, N-[(3-isobutyl-5-isoxazolyl)methyl]-4-chlorobenzamide], the “Evaluation (effect for rice blast)” value in assay [1] was 5 (0). For the same molecule, the “Evaluation (effect for cucumber anthracnose)” value in assay [2] is 5 (0).

Turning to `O=C(NCc1cc(Cc2ccccc2)no1)c1ccccc1` [IV-1, N-[(3-benzyl-5-isoxazolyl)methyl]benzamide], in assay [1], the “Evaluation (effect for rice blast)” value was 5 (0). For the same molecule, the “Evaluation (effect for cucumber anthracnose)” value in assay [2] was 5 (0).

With `CCCc1cc(CNC(=O)c2ccc(Br)cc2)on1` [III-264, N-[(3-propyl-5-isoxazolyl)methyl]-4-bromobenzamide], in assay [1], the “Evaluation (effect for rice blast)” value is 5 (0). In addition, the “Evaluation (effect for cucumber anthracnose)” value in assay [2] is on record as 5 (0). On to `COc1ccc(C(=O)NCc2cc(C(=O)Nc3ccc(OC(F)F)cc3)no2)cc1` [IV-93, N-{[3-(4-difluoromethyloxyphenyl)aminocarbonyl-5-isoxazolyl]methyl}-4-methoxybenzamide], for which the “Evaluation (effect for rice blast)” value in assay [1] was 4 (1˜5). Further, in assay [2], the “Evaluation (effect for cucumber anthracnose)” value was 3 (6˜10). The corresponding values for `CC(C)Cc1cc(CNC(=O)c2ccc(Cl)c(Cl)c2)on1` [III-255, N-[(3-isobutyl-5-isoxazolyl)methyl]-3,4-dichlorobenzamide] are 4 (1˜5) and 4 (1˜5). In the case of `Cc1ccc(C(=O)NCc2cc(C(C)C)no2)cc1` [III-5, N-[(3-isopropyl-5-isoxazolyl)methyl]-4-methyl benzamide], the “Evaluation (effect for rice blast)” value in assay [1] was 4 (1˜5). The “Evaluation (effect for cucumber anthracnose)” value in assay [2] is 4 (1˜5). On to `Cc1ccc(C(=O)NCc2cc(-c3ccc(C(=O)O)cc3)no2)cc1` [III-51, N-{[3-(4-carboxyphenyl)-5-isoxazolyl]methyl}-4-methylbenzamide], for which, in assay [1], the “Evaluation (effect for rice blast)” value is 5 (0). Also, the “Evaluation (effect for cucumber anthracnose)” value in assay [2] is 4 (1˜5). For `Cc1ccc(C(=O)NCc2cc(-c3ccccn3)no2)cc1` [III-217, N-{[3-(2-pyridyl)-5-isoxazolyl]methyl}-4-methylbenzamide], the “Evaluation (effect for rice blast)” value in assay [1] is given as 4 (1˜5). For the same molecule, in assay [2], the “Evaluation (effect for cucumber anthracnose)” value is 4 (1˜5). As for `COc1ccc(C(=O)NCc2cc(CCc3ccccc3)no2)cc1` [IV-34, N-{[3-(2-phenylethyl)-5-isoxazolyl]methyl}-4-methoxybenzamide], the “Evaluation (effect for rice blast)” value in assay [1] is given as 5 (0). The “Evaluation (effect for cucumber anthracnose)” value in assay [2] is 5 (0). On to `Cc1ccc(C(=O)NCc2cc(COc3cccc(C)c3)no2)cc1` [IV-49, N-{[3-(3-methylphenyl)oxymethyl-5-isoxazolyl]methyl}-4-methylbenzamide], for which the “Evaluation (effect for rice blast)” value in assay [1] is given as 2 (11˜20). Besides, the “Evaluation (effect for cucumber anthracnose)” value in assay [2] is 2 (11˜20). Consider `COc1ccc(C(=O)NCc2cc(C(=O)Nc3ccc(F)cc3F)no2)cc1` [IV-107, N-{[3-(2,4-difluorophenyl)aminocarbonyl-5-isoxazolyl]methyl}-4-methoxybenzamide], for which the “Evaluation (effect for rice blast)” value in assay [1] was 5 (0). The “Evaluation (effect for cucumber anthracnose)” value in assay [2] is given as 5 (0). `Cc1ccc(C(=O)NCc2cc(-c3ccccc3)no2)cc1` [III-107, N-[(3-phenyl-5-isoxazolyl)methyl]-4-methylbenzamide]: the “Evaluation (effect for rice blast)” value in assay [1] is reported as 5 (0). For the same molecule, in assay [2], the “Evaluation (effect for cucumber anthracnose)” value was 5 (0). Consider `O=C(NCc1cc(-c2ccccc2)no1)NC1CCCCC1` [II-7, 3-[(3-phenyl-5-isoxazolyl)methyl]-1-cyclohexyl urea], for which, in assay [1], the “Evaluation (effect for rice blast)” value is on record as 5 (0). Moreover, the “Evaluation (effect for cucumber anthracnose)” value in assay [2] is 5 (0). For `Cc1ccc(C(=O)NCc2cc(-c3ccc(C)cc3)no2)cc1` [III-11, N-{[3-(4-tolyl)-5-isoxazolyl]methyl}-4-methylbenzamide], in assay [1], the “Evaluation (effect for rice blast)” value is 5 (0). Also, the “Evaluation (effect for cucumber anthracnose)” value in assay [2] is on record as 3 (6˜10).

As to `COc1ccc(C(=O)NCc2cc(C(=O)Nc3ccccc3)no2)cc1` [IV-84, N-[(3-phenylaminocarbonyl-5-isoxazolyl)methyl]-4-methoxybenzamide], the “Evaluation (effect for rice blast)” value in assay [1] is given as 5 (0). In assay [2], the “Evaluation (effect for cucumber anthracnose)” value is 5 (0). With `O=C(NCc1cc(-c2ccccc2)no1)N1CCc2ccccc21` [III-208, N-[(3-phenyl-5-isoxazolyl)methylaminocarbonyl]indoline], the “Evaluation (effect for rice blast)” value in assay [1] was 4 (1˜5). Besides, the “Evaluation (effect for cucumber anthracnose)” value in assay [2] is recorded as 4 (1˜5). For `COc1ccc(C(=O)NCc2cc(C(=O)Nc3ccc(F)cc3)no2)cc1` [IV-95, N-{[3-(4-fluorophenyl)aminocarbonyl-5-isoxazolyl]methyl}-4-methoxybenzamide], in assay [1], the “Evaluation (effect for rice blast)” value is listed as 4 (1˜5). Moreover, the “Evaluation (effect for cucumber anthracnose)” value in assay [2] was 4 (1˜5).

On to `O=C(NCc1cc(-c2ccccc2)no1)Nc1cccnc1` [II-100, 1-[(3-phenyl-5-isoxazolyl)methyl]-3-(3-pyridyl)urea], for which the “Evaluation (effect for rice blast)” value in assay [1] is given as 4 (1˜5). Further, the “Evaluation (effect for cucumber anthracnose)” value in assay [2] is 4 (1˜5).

For `O=C(NCc1cc(Cc2ccccc2)no1)Oc1ccccc1` [I-38, phenyl[(3-benzyl-5-isoxazolyl)methyl]carbamate], in assay [1], the “Evaluation (effect for rice blast)” value is 5 (0). In addition, the “Evaluation (effect for cucumber anthracnose)” value in assay [2] is 5 (0). `CC(C)c1cc(CNC(=O)Cc2ccccc2)on1` [I-63, N-[(3-isopropyl-5-isoxazolyl)methyl]phenylacetamide]: the “Evaluation (effect for rice blast)” value in assay [1] was 2 (11˜20).

`O=C(NCc1cc(-c2ccccc2)no1)C(Cl)c1ccccc1` (stereo not shown) [I-49, N-[(3-phenyl-5-isoxazolyl)methyl]-2-chloro-2-phenylethanamide]: the “Evaluation (effect for rice blast)” value in assay [1] is 3 (6˜10).

The values above are taken from patent publication US20050171358A1 (priority 2002, published 2005).
